The numbers were not newly measured in patent publication US20070196901A1, “Kahalalide-producing bacteria” (priority 2003, published 2007), which cites them from elsewhere.

The subject of series [1] is prostate cancer.
Series [2] relates to AIDS-opportunistic infection pathogens. Conditions: against AIDS-opportunistic infection pathogens, compared with reference drugs.
Series [3] deals with M. tuberculosis.
Series [4] relates to HIV-1. Conditions: read-out: HIV-1 EC50; antiviral.

As to kahalalide F [KF], in series [1], the “efficacy in clinical trials against prostate cancer” value is “effective”. For the same substance, in series [2], the antifungal activity entry is “comparable to the activity of the drugs Amphotericin B and Ketoconazole/Rifampin”. For the same substance, the “inhibition of M. tuberculosis” value in series [3] is reported as “moderately inhibitory”. Also, the half-maximal effective concentration (EC50) (as a rule, the concentration needed to bring the measured effect to its halfway point) in series [4] was 14.2 µM.
